Source: PMC12040169 (PLOS Biology, 2025)

Test: in vitro
Conditions: human, hela cells, % viability

Row | SMILES | viability at 28.5 h, 10 µM | viability at 28.5 h, 10 µM (bulk resorufin, single well)
1 | N=c1n(CCCOc2ccc(Br)cc2)c2ccccc2n1CC(N)=O [CBK268786C] | 86.9% | –
2 | Cn1c(Cc2csc(N)n2)nnc1SCC(=O)NC1CCCCC1 [CBK268787] | 84.3% | –
3 | Cc1ccc(S(=O)(=O)NNC(=O)COc2cccc3cccnc23)cc1 [CBK268788] | 90.1% | –
4 | c1ccc2[nH]c(NCCN3CCOCC3)nc2c1 [CBK268791] | 96.7% | –
5 | COC(=O)C1=C(Cn2ccc(C(F)(F)F)n2)NC(=O)NC1c1cc(C)ccc1C (stereo not drawn) [CBK268792] | 105% | –
6 | Cc1ccc(N(C(C)C(=O)Nc2ccccc2C(F)(F)F)S(C)(=O)=O)cc1 (stereo not drawn) [CBK268796] | 84.5% | –
7 | CCOC(=O)c1c(NC(=O)CSc2nnnn2C)sc(C)c1C [CBK268798] | 103% | –
8 | COc1cc(Cl)cc(C2NC(=S)NC(c3ccccc3)=C2C(C)=O)c1OCC(=O)O (stereo not drawn) [CBK268801] | 98.3% | –
9 | CS(=O)(=O)Nc1cccc(C2=NN(C(=O)CCC(=O)O)C(c3cccc(F)c3)C2)c1 (stereo not drawn) [CBK268804] | 85% | –
10 | O=C(NCCN1CCOCC1)c1ccc2nccnc2c1 [CBK268806] | 108% | –
11 | O=C(O)C(Cc1ccccc1)NS(=O)(=O)c1ccc(I)cc1 (stereo not drawn) [CBK268807] | 110% | –
12 | Cc1ccccc1OCc1nnc(SCC(N)=O)n1-c1ccccc1 [CBK268808] | 101% | –
13 | CC1CCc2c(sc3ncnc(NCCc4nc5ccccc5[nH]4)c23)C1 (stereo not drawn) [CBK268809] | 91.6% | –
14 | CCOc1cc(Br)ccc1S(=O)(=O)NCc1ccc2c(c1)OCO2 [CBK268813] | 108% | –
15 | O=C1NC(=O)C(CCc2ccccn2)(CCc2ccccn2)C(=O)N1c1ccc(F)cc1 [CBK268816] | – | 93%
16 | Cc1cccc(NS(=O)(=O)c2ccc(I)cc2)n1 [CBK268818] | 87% | –
17 | O=C(Cc1ccccc1)Nc1ccc(NC(=O)c2ccc(-c3ccccc3)cc2)cc1 [CBK268821] | 87.2% | –
18 | COc1ccccc1OCCn1c(=N)n(CC(N)=O)c2ccccc21 [CBK268822C] | 88.6% | –
19 | COc1ccc2cc(Br)ccc2c1CC(=O)Nc1ccccc1[N+](=O)[O-] [CBK268823] | 95.8% | –
20 | O=C(Nc1nc2ccc(Cl)cc2s1)c1nc(SCc2ccccc2)ncc1Cl [CBK268825] | 98.2% | –
21 | Cc1cc(-c2nnc(SCC(=O)N3CCCc4ccccc43)o2)no1 [CBK268828] | 88% | –

Row | SMILES | viability at 28.5 h, 10 µM | viability at 28.5 h, 10 µM (bulk resorufin, single well)
22 | Cn1c2ccccc2c2nnc(SCCCC(=O)c3ccc(F)cc3)nc21 [CBK268830] | 92.8% | –
23 | CCc1ccc(NC(=N)Nc2nc(CSc3ncccn3)cc(=O)[nH]2)cc1 [CBK268836] | 88.1% | –
24 | Cc1nnc(SCc2cc(=O)[nH]c(N3CCN(Cc4ccccc4)CC3)n2)s1 [CBK268837] | 104% | –
25 | Cc1ccc(Cl)cc1N1C(=O)NC(=O)C(CCc2ccccn2)(CCc2ccccn2)C1=O [CBK268838] | – | 98.6%
26 | Cc1nnc(SCC(=O)Nn2c(-c3ccccc3)nc3ccccc3c2=O)[nH]1 [CBK268841] | 86.8% | –
27 | COc1ccc(F)cc1S(=O)(=O)Nc1cccc(C)n1 [CBK268842] | 84.9% | –
28 | NC(=O)C1CCN(C(=O)CCCSc2nc(-c3ccco3)cc(C(F)(F)F)n2)CC1 [CBK268844] | 98.5% | –
29 | O=C(NCC(O)c1ccc([N+](=O)[O-])cc1)c1cccc(S(=O)(=O)N2CCCC2)c1 (stereo not drawn) [CBK268847] | 119% | –
30 | COc1ccc(N2C(=O)CC(N3CCN(c4ccc(S(=O)(=O)N5CCCC5)cc4)CC3)C2=O)cc1 (stereo not drawn) [CBK268851] | 85.1% | –
31 | CCOC(=O)C1CCN(Cc2nc(-c3ccc(OC)c(OC)c3)no2)CC1 [CBK268852] | 92.4% | –
32 | CC(Oc1ccccc1)C(=O)Nc1ccc(-c2csc(-c3ccccc3)n2)cc1 (stereo not drawn) [CBK268855] | 103% | –
33 | CCOc1ccc(C)cc1S(=O)(=O)NCCc1c(C)[nH]c2c(Cl)cccc12 [CBK268859] | 86.8% | –
34 | Cc1noc(/C=C\c2cc(C)n(-c3ccc(C(=O)O)cc3)c2C)c1[N+](=O)[O-] [CBK268862] | 98.8% | –
35 | Cc1c(Cl)cccc1NC(=S)/N=C(\N)Nc1nc(C)c2ccccc2n1 [CBK268866] | 86.9% | –
36 | O=C(CN1CCN(c2ccccn2)CC1)N1c2ccccc2CCc2ccccc21 [CBK268868G] | 98.4% | –
37 | CSc1ncc(Cl)c(C(=O)Nc2ccc(S(=O)(=O)N3CCC(Cc4ccccc4)CC3)cc2)n1 [CBK268870] | 96.3% | –
38 | Cc1ccc(-c2cn(S(=O)(=O)c3cccc4nsnc34)nc2N)cc1 [CBK268871] | 113% | –
39 | c1ccc2nc3c(nc2c1)sc1nc2ccccc2n13 [CBK268872] | 104% | –
40 | CCc1nnc(Sc2ccc(C=O)cc2[N+](=O)[O-])[nH]1 [CBK268876] | 95.4% | –
41 | Cc1ccc(-c2noc(CSc3nnc(-c4ccncc4)n3-c3ccc(C)cc3)n2)cc1 [CBK268879] | 101% | –
42 | CCN1CCN(C(=O)CN(C)S(=O)(=O)c2ccc(OC)c(C)c2)CC1 [CBK268880] | 110% | –
